Values quoted from earlier work, collected in article PMC2895553 (Journal of the American Chemical Society, 2010).

Test system: αvβ3 integrin

cyclo(-Arg-Gly-Asp-DPhe-(Me)Val-] [Cilengitide]
activity as inhibitor for the αvβ3 integrin: 0.5 nM
